This data set deals with human embryonic stem cell-derived embryoid bodies. Description: Cell death inducing effect on residual stem cells in human embryonic stem cell-derived embryoid bodies and enrichment of cardiomyocytes. Type of data set: cell-based. The conditions noted are these: 0.45 M, 2 hours. Here is the method: After passaging, human embryonic stem cells were subjected to suspension culture in a culture medium [α-MEM (minimum essential medium) (SIGMA), supplemented with 10% FBS (EQUITEC BIO), 100 units/ml penicillin, and 50 μg/ml streptomycin (GIBCO)] to induce formation of embryoid bodies. At 14-18 days after the start of differentiation (the start of suspension culture), autonomously pulsating cells started to differentiate, which was confirmed in a separate step that they were cardiomyocytes.
The embryoid bodies still maintained an autonomously pulsating ability after the passage of 3 months from the start of differentiation. They were partially treated with 0.1% collagenase (Wortington) and 0.1% trypsin (DIFCO) to be dispersed as fine cell masses. The cell masses were divided into two groups; one group was treated with 0.45 M mannitol (approximately equivalent to 720 mOsm/kg) for 2 hours, and the other group (control) was not treated with mannitol but treated with the same amount of a solution having the physiological osmotic pressure, Ads buffer (116.4 mM NaCl, 5.4 mM KCl, 5.6 mM dextrose, 10.9 mM NaH2PO4, 405.7 μM MgSO4, 20 mM Hepes, pH 7.3) for 2 hours. After the treatment, both cell groups were subjected to adherent culture for 3 days in a DMEM solution supplemented with 10% fetal calf serum.
The mannitol-treated cells and the control cells were analyzed in accordance with the experimental procedure of Example 1 using a mouse anti-Oct-3/4 monoclonal antibody (No. 084720 of BD Transduction Laboratories) and a goat anti-Nkx 2.5 antibody (No. N-19 of Santacruz) as primary antibodies, for the expression of the Oct-3/4 protein which was both a marker of embryonic stem cells and an intranuclear transcription factor, and for the expression of the Nkx 2.5 protein which was both a cardiomyocyte marker and an intranuclear transcription factor, respectively. The results for the control group, one of the two divided samples, are shown in FIG. 10 and the results for the test group subjected to 2-hr treatment with mannitol are shown in FIG. 11. The upper panels of FIG. 10 show the results of cardiomyocytes and the lower panels show the results of embryonic stem cells.
The embryoid bodies still maintained an autonomously pulsating ability after the passage of 3 months from the start of differentiation. They were partially treated with 0.1% collagenase (Wortington) and 0.1% trypsin (DIFCO) to be dispersed as fine cell masses. The cell masses were divided into two groups; one group was treated with saccharides (sugar alcohols: sorbitol, xylitol, and glycerol; sugars: sucrose and glucose; betaines: trimethylglycine) for 12 hours in an amount of 0.45 M (approximately equivalent to 700-780 mOsm/kg) or 0.6 M (approximately equivalent to 850-1000 mOsm/kg), and the other group (control) was not treated with those saccharides but treated with the same amount of a solution having the physiological osmotic pressure, Ads buffer (116.4 mM NaCl, 5.4 mM KCl, 5.6 mM dextrose, 10.9 mM NaH2PO4, 405.7 μM MgSO4, 20 mM Hepes, pH 7.3) for 2 hours. After the treatment, both cell groups were cultured for 12 hours in a DMEM solution supplemented with 10% fetal calf serum.
Samples of differentiated cells derived from human embryonic stem cells, as treated with 0.45 M glycerol (approximately equivalent to 710 mOsm/kg) or 0.6 M glycerol (approximately equivalent to 870 mOsm/kg), were examined for their morphology under the culture conditions. […] The cell death inducing effect was noticeable when the cells were exposed to glycerol for 10 hours and longer (FIG. 14).

The mark [1] stands for this setting: one week after the treatment, immunohistochemical technique.

Take `OC[C@@H](O)[C@@H](O)[C@H](O)[C@H](O)CO` [mannitol]: the Toxicity in cardiomyocytes entry is reported as “does not show significant toxicity in cardiomyocytes”. For the setting “then 3 days adherent culture”, the Autonomously pulsating cells result is “autonomously pulsating cell populations and autonomously pulsating single cells were found adherent to or suspended in the culture dish”; the “Colonies of cells assumed to be undifferentiated cells” value is recorded as “no such cell populations were found at all”. For the same compound, under setting [1], the “Type of surviving cells (Nkx 2.5)” value is reported as “a great majority of the surviving cells were Nkx 2.5 positive cardiomyocytes” and the “Type of surviving cells (Oct-3/4)” value was “Oct-3/3 negative cells were hardly detectable”.

The record behind these values is patent US8735152B2, “Methods for inducing cell death in pluripotent stem cells and differentiated cells other than cardiac myocytes” (Daiichi Sankyo Company, Limited, priority 2009, dated 2014).
